Data on one compound can be found in article PMC4992173, “Divergent synthesis and identification of the cellular targets of deoxyelephantopins” (Nature Communications, 2016).

For the experiment, the target named is T1, Thioredoxin domain-containing protein 12 (TXNDC12) (Homo sapiens, UniProt O95881).
T1 construct: endogenous in cells; host or cells: MCF7
Briefly: SILAC competitive profiling with probe 24c in MCF7 lysates: TXNDC12. Type of experiment: binding. The settings on record: 1 h, then 10 µM 24c. An excerpt:
In our efforts to determine the direct molecular targets of deoxyelephantopin we first performed a gel-based competitive in situ proteomic profiling assay[41] […] While the greater conformational flexibility of probe 24c could potentially lead to more promiscuous target engagement relatively to deoxyelephantopin, it was favoured based on the fact that an alkyne moiety appended to the rigid scaffold of deoxyelephantopin may hinder some of its interactions. MCF7 cells were pretreated with various concentrations of deoxyelephantopin for 4 h, harvested, lysed and the lysates were treated with the fluorogenic probe 24c-Cy3 (10 μM; Supplementary Fig. 10). […] Furthermore, cells were pretreated with 20 μM concentration of deoxyelephantopin or 24c and the proteomic profiles were compared (Fig. 6b, Supplementary Fig. 11). Multiple bands were detected that were equally competed by both DEP and 24c, thus again confirming that 24c can be used as an acceptable clickable analogue of deoxyelephantopin in pulldown assays. Having established the optimal labelling conditions by SDS–PAGE, we next carried out a mass spectrometry-based competitive profiling assay[42] coupled with the method of stable isotope labelling of amino acids in culture (SILAC)[43]. […]
visualization were performed as described above. Images were quantified with ImageJ and kinetics values were calculated using GraphPad Prism (V6.03). […]

T1 sequence (O95881 27-172): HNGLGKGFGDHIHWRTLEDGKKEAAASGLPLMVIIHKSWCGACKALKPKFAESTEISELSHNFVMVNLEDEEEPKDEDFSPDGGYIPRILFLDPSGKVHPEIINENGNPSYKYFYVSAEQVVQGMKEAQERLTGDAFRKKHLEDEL

`C=C(C)C(=O)O[C@H]1CC2=C[C@@H](C/C(C)=C/[C@H]3OC(=O)C(=C)[C@H]13)OC2=O` [deoxyelephantopin]: the “SILAC ratio 20 µM Deoxyelephantopin/DMSO with 24c” value is reported as 0.12.
